Converted amounts (≈) assume the structure as drawn. Read-outs that look alike come from different tables or passages of the source.
Tests used:
L1210 Leukämiezellen = assay: Colony formation of L1210 leukaemia cells in soft agar (cytotoxicity in vitro); format: cell-based, Maus; details: Mus musculus
Text: Die zytostatische Wirksamkeit der erfindungsgemäßen Verbindungen wurde anhand von L1210 Leukämiezellen der Maus getestet. Hierzu wurde die Koloniebildung von L1210 Leukämiezellen in Agarplatten herangezogen. Diese Methode dient zum Nachweis des Einflusses der Testsubstanzen auf das Wachstumsverhalten der Zellen über 1 Stunde oder über mehrere Generationen. Bei einer Zellzykluszeit von 10-12 Stunden werden dabei in der Testzeit von 7 Tagen etwa 14 aufeinanderfolgende Generationen beobachtet. Die erfindungsgemäßen zytostatisch wirksamen Substanzen bewirken in diesem Test eine Reduktion der zu beobachtenden Koloniezahl gegenüber einer unbehandelten Kontrollprobe.
Verfahrensweise zur Ermittlung der Koloniebildung von L1210 Leukämiezellen in Soft-Agar
500 Leukämiezellen pro Platte wurden mit unterschiedlichen Konzentrationen der Testsubstanz 1 Stunde bei 37°C inkubiert. Anschließend wurden die Zellen zweimal mit McCoy5A-Medium gewaschen und schließlich in Petrischalen nach Zugabe von 0,3 % Agar ausgegossen. Kontrollen wurden lediglich mit frischem Medium inkubiert. Anstelle der einstündigen Inkubation wurden in manchen Fällen unterschiedliche Konzentrationen und Testsubstanzen der oberen Agarschicht zugemischt, um so eine kontinuierliche Exposition der Zellen über die gesamte Inkubationszeit zu erreichen. Nach Erstarren des Agars wurden die Platten im Brutschrank 7 Tage bei 37°C inkubiert (5 Vol.-% CO₂, 95 % relative Luftfeuchtigkeit). Anschließend wurde die Zahl der entstandenen Kolonien mit einem Durchmesser von mehr als 60 µm gezählt. Die Ergebnisse wurden angegeben als Koloniezahl in behandelten Agarplatten in Prozent der unbehandelten Kontrolle. Aus der so erhalte nen Dosiswirkungskurve wurde die IC₅₀ als Maß für die Wirksamkeit der Substanz ermittelt. Die Ergebnisse für die hier beschriebenen Verbindungen im Vergleich zu Adriamycin sind in Tabelle 1 zusammengefaßt.

[1] = Stability under weakly acidic conditions (qualitative statement); format: physicochemical; details: unter schwach sauren Bedingungen
[2] = L1210, 168 h, continuous exposure over the whole incubation time (7 days, 37°C), substance mixed into upper agar layer, colony count vs untreated control, read-out: Dauerinku-bation IC50
[3] = L1210, 1 h incubation at 37°C, cells washed, then 7 days in agar, colony count vs untreated control, read-out: 1 h-Inku-bation IC50

CC[C@@]1(O)C[C@H](O[C@H]2C[C@H](N(C)CCNCCc3c[nH]cn3)[C@H](O)[C@H](C)O2)c2c(O)c3c(c(O)c2[C@H]1O)C(=O)c1cccc(O)c1C3=O [Verbindung 4, 7-0-(3′-N-Histaminoethyl-3′-N-methyl-α-L-daunosaminyl)-β-rhodomycinon]
IC50 (L1210 Leukämiezellen; [2]): 0.4 mg/L (≈ 0.6 µM) | IC50 (L1210 Leukämiezellen; [3]): 1.2 mg/L (≈ 1.8 µM)

CC[C@@]1(O)C[C@H](O[C@H]2C[C@H](N(C)CCN(C)CCNC)[C@H](O)[C@H](C)O2)c2c(O)c3c(c(O)c2[C@H]1O)C(=O)c1cccc(O)c1C3=O [Verbindung 3, 7-0-(3′-N-(N,N′-Dimethyl-ethylendiaminoethyl)-3′-N-methyl-α-L-daunosaminyl)-β-rhodomycinon]
IC50 (L1210 Leukämiezellen; [2]): 0.1 mg/L (≈ 0.155 µM) | IC50 (L1210 Leukämiezellen; [3]): 0.6 mg/L (≈ 0.932 µM)

CC[C@@]1(O)C[C@H](O[C@H]2C[C@H](N(C)CCCl)[C@H](O)[C@H](C)O2)c2c(O)c3c(c(O)c2[C@H]1O)C(=O)c1cccc(O)c1C3=O [Verbindung 1, 7-0-(3′-N-Chlorethyl-3′-N-methyl-α-L-daunosaminyl)-β-rhodomycinon]
Stabilität [1]: relativ stabil | IC50 (L1210 Leukämiezellen; L1210, 168 h, read-out: Dauerinku-bation IC50): 0.03 mg/L (≈ 0.0507 µM) | IC50 (L1210 Leukämiezellen; L1210, read-out: 1 h-Inku-bation IC50): 0.11 mg/L (≈ 0.186 µM)

CC[C@@]1(O)C[C@H](O[C@H]2C[C@H](N(C)CCN(C)C)[C@H](O)[C@H](C)O2)c2c(O)c3c(c(O)c2[C@H]1O)C(=O)c1cccc(O)c1C3=O [Verbindung 2, 7-0-(3′-N-Dimethylaminoethyl-3′-N-methyl-α-L-,daunosaminyl)-β-rhodomycinon]
IC50 (L1210 Leukämiezellen; [2]): 0.033 mg/L (≈ 0.0549 µM) | IC50 (L1210 Leukämiezellen; [3]): 0.12 mg/L (≈ 0.2 µM)
